3 compounds from PMC12406255, “Engineering Peptide Modulators for T‑Cell Migration by Structural Scaffold Matching” (Journal of Medicinal Chemistry, 2025) can be followed below.

Where two headings read alike, the source gives them in different places. Positions of bridges follow the written chain, without caps; N, C: chain ends. Non-standard residues stand in square brackets, D forms with d. Residues, ends and D or L forms follow the SMILES beside them. Nle = CCCC[C@H](N)C(=O)O Where only a bound is given, the exact number is not on record here.

The nature of data set [1]: Serum stability assay. Format: in vitro ADME. The following applies: human serum of healthy donors, lipids removed by centrifugation, 37 °C, peptide 30-60 μM from 10-fold stock in PBS, followed over 48 h, urea/TFA quench, analytical RP-HPLC peak area vs time 0, one-phase decay fit; mean ± SD, n = 2 (pepitem n = 5); read-out: Serum t 1/2 (converted). As for the experimental part:
Stability of peptides in human serum was measured similarly to that previously described. In short, fresh blood from healthy donors was collected in serum collection tubes (Clot Activator Tube, Becton Dickinson, Plymouth, United Kingdom, […]) and incubated at 4 °C for 2 h to allow blood clotting. The serum was separated by centrifugation at 1000 × g for 10 min. To remove lipids from the serum, an additional centrifugation step was performed at 15,000 × g for 15 min at 4 °C, after which the serum was used for the stability assays. For this, the serum was prewarmed for 10 min at 37 °C before the addition of the test compounds. Peptides were prepared at a 10-fold concentration in PBS and diluted to a final concentration between 60 and 30 μM with the serum. The serum-peptide reaction mix was incubated at 37 °C, and 40 μL aliquots were taken at the indicated time points. To stop the reaction, samples were mixed with 40 μL of 6 M urea for 10 min on ice, followed by precipitation of serum proteins by the addition of 40 μL of 20% TFA and incubation for at least 10 min on ice. The precipitate was pelleted at 15,000 × g for 15 min, and 90 μL of the supernatant was freeze-dried. The dry material was resuspended in HPLC solvent A (0.1% TFA in ddH2O). Peptide quantification was performed using analytical HPLC. The remaining peptide relative to the starting point (time point 0) was calculated by peak integration to determine the area under the peak at the designated time points and further calculated in comparison to time point 0 min, which was set as 100%. To calculate the half-life of the peptides in human serum, data points were fitted with a one-phase decay equation.

The test system of data set [2] is memory CD4+ cells (CD3+, CD4+, CD45RO+). It counts as cell-based, human. The following applies: normalized to untreated control, mean ± SEM of 4-6 experiments. As for the experimental part: (§1) Transwell migration assays were performed similarly as published previously. HMEC-1 cells were seeded at a density of 75,000 cells per well in transwell inserts. Three days after cell seeding, the medium was changed, and the cells were stimulated with 100 ng/mL TNF-α and 20 ng/mL IFN-γ for 16–18 h. On the day of the assay, cells were washed with migration medium (serum-free RPMI medium supplemented with 0.1% BSA) to remove residual cytokines and starved for at least 1 h at 37 °C in migration medium. PBMC were starved for at least 1.5 h in migration medium before addition to the EC. For S1P and lifitegrast-treated samples, the PBMC were preincubated for at least 1.5 h at 37 °C with the ligands before addition to the EC. Pepitem and other peptides were added onto the EC monolayer and preincubated for 15–30 min at 37 °C before the addition of the PBMC. 200,000 PBMC per well were added directly on top of the EC prestimulated with pepitem or other peptides to reach a final volume of 150 μL in the donor compartments. The receiver compartments of the wells were filled with 600 μL RPMI with 20% FBS. After 4 h of migration at 37 °C, the receiver compartment with the migrated cells was collected. The migrated cells were stained with the indicated antibodies: CD3-APC (clone: OKT3, lot: B400127), CD4-PE (clone: OKT4. lot: B379180), CD8-FITC (clone: HIT8a, lot: B370193) from Biolegend and CD3-VioGreen (clone: REA613, lot: 5240502518), CD45RO-FITC (clone: REA611, lot: 5240502519), CD4-PerCP-Vio700 (clone: REA623, lot: 5240506702), CXCR3 PE-Vio615 (clone: REA232, lot: 5240506722), CD196-APC (clone: REA190, lot: 5240506717), CD8-APC-Vio770 (clone: REA734, lot: 5240303993) and CD45RO-PEVio616 (clone: REA611, lot: 5231102514) from Miltenyi Biotec (Bergisch Gladbach, Germany) and counted using precision counting beads (Biolegend) on a CytoflexS flow cytometer (BeckmanCoulter). Data was analyzed using CytExpert (Version 2.4). T cells were gated as CD3^+ cells, T cell subsets were gated as CD4^+ (CD3^+, CD4^+), CD8^+ (CD3^+, CD8^+), memory CD4^+ (CD3^+, CD4^+, CD45RO^+), memory CD8^+ (CD3^+, CD8^+, CD45RO^+) and Th1 cells (CD3^+, CD4^+, CXCR3^+, CCR6^–).
(§2) Data were analyzed using GraphPad Prism software. EC50 values were calculated by three-parameter nonlinear regression analysis. For this, the data points were normalized to the number of migrated cells in untreated (buffer) control samples (100%), and the regression was fitted with the top constraint to 100 and the slope fixed to 1. Statistical significance is indicated in graphs as n.s. not significant, * p < 0.05; ** p < 0.01; *** p < 0.001. The statistical tests used are indicated in the respective figure captions.

For data set [3], the system named is CD8+ lymphocytes (CD3+, CD8+). Format: cell-based, human. Particulars: normalized to untreated control, mean ± SEM of 4-6 experiments. As for the experimental part:
as §1, §2

Data set [4] concerns memory CD8+ cells (CD3+, CD8+, CD45RO+). Format: cell-based, human. Particulars: normalized to untreated control, mean ± SEM of 4-6 experiments. As for the experimental part:
as §1, §2

Data set [5] relates to CD4+ lymphocytes (CD3+, CD4+). It counts as cell-based, human. Particulars: normalized to untreated control, mean ± SEM of 4-6 experiments. As for the experimental part:
as §1, §2

Data set [6] concerns CD3+ lymphocytes. Description: cells. Format: cell-based, human. The following applies: normalized to untreated control, mean ± SEM of 4-6 experiments. The method, then:
1 Transwell-based migration assay to study lymphocyte transendothelial migration. (A) The general principle of the transwell migration assay is depicted. Endothelial cells (EC) are seeded in transwell inserts and are incubated for 2 days to form an EC monolayer. On the day before the assay, the ECs are cytokine-stimulated to induce the expression of adhesion molecules. In the migration assay, human peripheral blood mononuclear cells (PBMC) are placed into the donor compartment of the transwell setup. After 4 h of incubation time, the migrated cells are harvested from the receiver compartment, stained with fluorescent antibodies and counted using flow cytometry. (B) PBMCs were preincubated with S1P for 1.5 h and then transferred into the donor compartment on top of the EC monolayer. […] Data are shown as mean ± SD of 3 to 5 independent experiments.
as §1, §2

Consider `CCCC[C@@H]1NC(=O)[C@H](C(C)C)NC(=O)[C@H](CCCCN)NC(=O)[C@@H](NC(=O)[C@H](CCC(N)=O)NC(=O)[C@H](CCC(=O)O)NC(C)=O)CSSC[C@@H](C(=O)N[C@@H](CCC(=O)O)C(=O)N[C@@H](CCCCN)C(N)=O)NC(=O)[C@H](CC(N)=O)NC(=O)[C@H](CC(=O)O)NC(=O)[C@H](CC(C)C)NC(=O)[C@@H]2CSSC[C@H](NC1=O)C(=O)N[C@@H](Cc1ccc(O)cc1)C(=O)N[C@@H](CCC(=O)O)C(=O)N[C@@H](CCC(N)=O)C(=O)NCC(=O)N[C@@H](C)C(=O)N[C@@H](CCC(=O)O)C(=O)N[C@@H](CC(C)C)C(=O)N1CCC[C@H]1C(=O)N[C@@H](CCC(=O)O)C(=O)N[C@@H](CC(C)C)C(=O)N[C@@H](CC(C)C)C(=O)N[C@@H](CCCNC(=N)N)C(=O)N[C@@H](CCCNC(=N)N)C(=O)N2` [VhTI-pep 3] (Ac-EQCKV[Nle]CYEQGAELPELLRRCLDNCEK-NH2; disulfide 3-25, 7-21), for which, in data set [1], the half-life was above 48 h. Besides, the “% Inhibition of cell migration compared to control, Memory CD4+” value (shortened to “% Inhibition of cell migration … Memory CD4+”) in data set [2] (0.1 μM) is on record as “–8.7 ± 3.4%”; in data set [2] (1 μM), 11.7 ± 10.6%. Further, the “% Inhibition of cell migration compared to control, CD8+” value (“% Inhibition … to control, CD8+” below) is listed as 10.4 ± 11.2% in data set [3] (0.1 μM) and 14.0 ± 13.8% in data set [3] (1 μM). Further, the “% Inhibition of cell migration compared to control, Memory CD8+” value (“% Inhibition of cell migration … Memory CD8+” for short) in data set [4] (0.1 μM) is listed as 3.9 ± 9.7%; in data set [4] (1 μM), 3.0 ± 11.6%. The “% Inhibition of cell migration compared to control, CD4+” value (shortened to “% Inhibition … to control, CD4+”) in data set [5] (0.1 μM) is reported as “–8.9 ± 18.1%”; in data set [5] (1 μM) it was 10.8 ± 10.1%. The “% Inhibition of cell migration compared to control, CD3+” value (shortened to “% Inhibition of cell migration … CD3+”) was 1.5 ± 7.6% in data set [6] (0.1 μM) and 4.6 ± 10.6% in data set [6] (1 μM).
On to `CCCC[C@@H]1NC(=O)[C@H](C(C)C)NC(=O)[C@H](CCCCN)NC(=O)[C@@H](NC(=O)[C@H](CCC(N)=O)NC(=O)[C@H](CCC(=O)O)NC(C)=O)CSSC[C@@H](C(=O)N[C@@H](CCC(=O)O)C(=O)N[C@@H](CCCCN)C(N)=O)NC(=O)[C@H](CC(N)=O)NC(=O)[C@H](CC(=O)O)NC(=O)[C@H](CC(C)C)NC(=O)[C@@H]2CSSC[C@H](NC1=O)C(=O)N[C@@H](Cc1ccc(O)cc1)C(=O)N[C@@H](CCC(N)=O)C(=O)NCC(=O)N[C@@H](C)C(=O)N[C@@H](CCC(=O)O)C(=O)N[C@@H](CC(C)C)C(=O)N[C@@H](CO)C(=O)N1CCC[C@H]1C(=O)N[C@@H](CCC(=O)O)C(=O)N[C@@H](CC(C)C)C(=O)N[C@@H](CC(C)C)C(=O)N[C@@H](CCCNC(=N)N)C(=O)N[C@@H](CCCNC(=N)N)C(=O)N2` [VhTI-pep 4] (Ac-EQCKV[Nle]CYQGAELSPELLRRCLDNCEK-NH2; disulfide 3-25, 7-21), for which, in data set [1], the half-life was above 48 h. The entries for the “% Inhibition of cell migration … Memory CD4+” value in data set [2] (0.1 μM) and in data set [2] (1 μM) were 12.9 ± 11.0% and 27.2 ± 7.8%, respectively. Besides, the “% Inhibition … to control, CD8+” value is given as 19.5 ± 20.2% in data set [3] (0.1 μM) and 26.0 ± 10.7% in data set [3] (1 μM). For the same compound, the “% Inhibition of cell migration … Memory CD8+” value in data set [4] (0.1 μM) is 27.9 ± 3.8%; in data set [4] (1 μM), 19.7 ± 7.9%. Moreover, the “% Inhibition … to control, CD4+” value in data set [5] (0.1 μM) was found to be 16.5 ± 7.3%; in data set [5] (1 μM) it was 24.5 ± 5.9%. In addition, the “% Inhibition of cell migration … CD3+” value in data set [6] (0.1 μM) came out at 16.7 ± 11.0%; in data set [6] (1 μM), 24.4 ± 8.0%.
As to `CCCC[C@@H]1NC(=O)[C@H](C(C)C)NC(=O)[C@H](CCCCN)NC(=O)[C@@H](NC(=O)[C@H](CCC(N)=O)NC(=O)[C@H](CCC(=O)O)NC(C)=O)CSSC[C@@H](C(=O)N[C@@H](CCC(=O)O)C(=O)N[C@@H](CCCCN)C(N)=O)NC(=O)[C@H](CC(N)=O)NC(=O)[C@H](CC(=O)O)NC(=O)[C@H](CC(C)C)NC(=O)[C@@H]2CSSC[C@H](NC1=O)C(=O)N[C@@H](Cc1ccc(O)cc1)C(=O)N[C@@H](CCC(=O)O)C(=O)N[C@@H](CCC(N)=O)C(=O)NCC(=O)N[C@@H](C)C(=O)N[C@@H](CC(C)C)C(=O)N[C@@H](CO)C(=O)N1CCC[C@H]1C(=O)N[C@@H](CCC(=O)O)C(=O)N[C@@H](CC(C)C)C(=O)N[C@@H](CC(C)C)C(=O)N[C@@H](CCCNC(=N)N)C(=O)N[C@@H](CCCNC(=N)N)C(=O)N2` [VhTI-pep 5] (Ac-EQCKV[Nle]CYEQGALSPELLRRCLDNCEK-NH2; disulfide 3-25, 7-21), in data set [1], the half-life was above 48 h. For the same compound, the “% Inhibition of cell migration … Memory CD4+” value is given as 11.5 ± 13.6% in data set [2] (0.1 μM) and 28.6 ± 8.8% in data set [2] (1 μM). Moreover, the “% Inhibition … to control, CD8+” value in data set [3] (0.1 μM) was 20.8 ± 6.8%; in data set [3] (1 μM), 24.8 ± 12.8%. Besides, the “% Inhibition of cell migration … Memory CD8+” value in data set [4] (0.1 μM) is recorded as 4.7 ± 10.1%; in data set [4] (1 μM), 14.0 ± 13.4%. The figures for the “% Inhibition … to control, CD4+” value in data set [5] (0.1 μM) and in data set [5] (1 μM) were 16.2 ± 7.7% and 33.5 ± 5.7%, respectively. The “% Inhibition of cell migration … CD3+” value in data set [6] (0.1 μM) is reported as 18.0 ± 6.2%; in data set [6] (1 μM), 28.4 ± 7.4%.
